Where two headings read alike, the source gives them in different places.
Key:
[1] = target: T1, porcine α2δ1 (pα2δ1) calcium channel subunit (Sus scrofa, UniProt A0A287BIN3); assay: [3H]gabapentin radioligand binding to membranes from HEK293 stable cell line GKS02; conditions: for affinity in competition with [3H]gabapentin binding, in words: pα2δ1
T1 construct: expressed in transfected cells
Procedure: Cell culture and transfection. […] The media were supplemented with 50 units/mL penicillin, 50 μg/mL streptomycin, and 10% heat-inactivated fetal bovine serum (FBS), in a humidified incubator with 95% air and 5% CO2 at 37° C. For transient transfection into COS-7 cells, 20 μg of plasmid DNA (vector or the same vector with α2δ insert) was incubated with 30 μL of lipofectamine. The mixture was overlaid onto the cells in 1.5 mL serum-free medium and incubated for 5 hours. Then FBS was added to the dishes to bring the final concentration to 10%. The medium was changed next morning. Forty-eight hours after the transfection, the cells were harvested for membrane preparation. For stable transfection of porcine α2δ1 and human α2δ2 into HEK 293 cells, the same procedure was applied as that for a transient transfection except for that 800 μg/mL G418 (gentacin) was added to the cells 48 hours after the transfection. […] In addition, hosts for expression of α2δ2 protein binding assays can also include eukaryotic expression systems such as yeast, insect cells, and mammalian cells (CHO, COS-7, HEK293, etc.).
(§1) Membrane preparation. Membranes were prepared from tissues or cultured cells. The cells were washed twice with cold PBS and then scraped off with cold buffer containing Tris (5 mM, pH 7.4), EDTA (5 mM), PMSF (0.1 mM), leupeptin (0.02 mM), and pepstatin (0.02 mM). The cells were incubated on ice for 30 minutes, followed by sonication for 30 to 40 seconds. For membrane preparations from tissues, the tissues were sliced into small pieces and subjected to sonication at interval of 10 seconds 4 times. The resulting homogenates from tissues or cultured cells were centrifuged for 10 minutes at 750 to 1000×g, and then the supernatants were centrifuged at 50,000×g for 30 minutes. The resulting pellets were resuspended in the same buffer as described above.
Binding assays. […] The membranes (100 μg of proteins for transiently transfected cells, 20 μg for GKS02 cell membranes, and 10 μg for GKS07 cell membranes) were incubated in 10 mM HEPES (N-[2-hydroxyethyl]piperazine-N′-[2-ethanesulfonic acid]) (pH 7.4) for 40 to 50 minutes at room temperature, and then filtered onto pre-wetted GF/C membranes and quickly washed five times with 3 mL of ice cold 50 mM Tris buffer (pH 7.4). The filters were dried and counted in a liquid scintillation counter. […] The specific binding was obtained by subtracting nonspecific binding from the total binding.

[2] = target: T2, human α2δ2 (hα2δ2) calcium channel subunit (Homo sapiens, UniProt Q9NY47); assay: [3H]gabapentin radioligand binding to membranes from HEK293 stable cell line GKS07; conditions: for affinity in competition with [3H]gabapentin binding, in words: hα2δ2
T2 construct: covered the whole open reading frame of hα2δ2 cDNA; expressed in transfected cells
Procedure: Cell culture and transfection. COS-7 and HEK293 cells were cultured in DMEM and RPMI 1640 media, respectively. The media were supplemented with 50 units/mL penicillin, 50 μg/mL streptomycin, and 10% heat-inactivated fetal bovine serum (FBS), in a humidified incubator with 95% air and 5% CO2 at 37° C. For transient transfection into COS-7 cells, 20 μg of plasmid DNA (vector or the same vector with α2δ insert) was incubated with 30 μL of lipofectamine. The mixture was overlaid onto the cells in 1.5 mL serum-free medium and incubated for 5 hours. Then FBS was added to the dishes to bring the final concentration to 10%. The medium was changed next morning. Forty-eight hours after the transfection, the cells were harvested for membrane preparation. For stable transfection of porcine α2δ1 and human α2δ2 into HEK 293 cells, the same procedure was applied as that for a transient transfection except for that 800 μg/mL G418 (gentacin) was added to the cells 48 hours after the transfection. […] The cell line has ATCC No. PTA-1823. In addition, hosts for expression of α2δ2 protein binding assays can also include eukaryotic expression systems such as yeast, insect cells, and mammalian cells (CHO, COS-7, HEK293, etc.).
as §1
Binding assays. […] The membranes (100 μg of proteins for transiently transfected cells, 20 μg for GKS02 cell membranes, and 10 μg for GKS07 cell membranes) were incubated in 10 mM HEPES (N-[2-hydroxyethyl]piperazine-N′-[2-ethanesulfonic acid]) (pH 7.4) for 40 to 50 minutes at room temperature, and then filtered onto pre-wetted GF/C membranes and quickly washed five times with 3 mL of ice cold 50 mM Tris buffer (pH 7.4). The filters were dried and counted in a liquid scintillation counter. For determining nonspecific binding, the binding assays were performed in the presence of 10 μM pregabalin (Gee N. S., Brown J. P., Dissanayake V. U., Offord J.; Thurlow R., Woodruff G. N., J. Biol. Chem., 1996;271:5768–5776). The specific binding was obtained by subtracting nonspecific binding from the total binding. Clone #7 was identified as the highest α2δ2 subunit expressing clone. Binding assays can also be performed using recombinant and/or purified α2δ2 protein from human and other mammalian species, for screening α2δ2 subtype-selective inhibitors.

T1 sequence (A0A287BIN3 25-1109): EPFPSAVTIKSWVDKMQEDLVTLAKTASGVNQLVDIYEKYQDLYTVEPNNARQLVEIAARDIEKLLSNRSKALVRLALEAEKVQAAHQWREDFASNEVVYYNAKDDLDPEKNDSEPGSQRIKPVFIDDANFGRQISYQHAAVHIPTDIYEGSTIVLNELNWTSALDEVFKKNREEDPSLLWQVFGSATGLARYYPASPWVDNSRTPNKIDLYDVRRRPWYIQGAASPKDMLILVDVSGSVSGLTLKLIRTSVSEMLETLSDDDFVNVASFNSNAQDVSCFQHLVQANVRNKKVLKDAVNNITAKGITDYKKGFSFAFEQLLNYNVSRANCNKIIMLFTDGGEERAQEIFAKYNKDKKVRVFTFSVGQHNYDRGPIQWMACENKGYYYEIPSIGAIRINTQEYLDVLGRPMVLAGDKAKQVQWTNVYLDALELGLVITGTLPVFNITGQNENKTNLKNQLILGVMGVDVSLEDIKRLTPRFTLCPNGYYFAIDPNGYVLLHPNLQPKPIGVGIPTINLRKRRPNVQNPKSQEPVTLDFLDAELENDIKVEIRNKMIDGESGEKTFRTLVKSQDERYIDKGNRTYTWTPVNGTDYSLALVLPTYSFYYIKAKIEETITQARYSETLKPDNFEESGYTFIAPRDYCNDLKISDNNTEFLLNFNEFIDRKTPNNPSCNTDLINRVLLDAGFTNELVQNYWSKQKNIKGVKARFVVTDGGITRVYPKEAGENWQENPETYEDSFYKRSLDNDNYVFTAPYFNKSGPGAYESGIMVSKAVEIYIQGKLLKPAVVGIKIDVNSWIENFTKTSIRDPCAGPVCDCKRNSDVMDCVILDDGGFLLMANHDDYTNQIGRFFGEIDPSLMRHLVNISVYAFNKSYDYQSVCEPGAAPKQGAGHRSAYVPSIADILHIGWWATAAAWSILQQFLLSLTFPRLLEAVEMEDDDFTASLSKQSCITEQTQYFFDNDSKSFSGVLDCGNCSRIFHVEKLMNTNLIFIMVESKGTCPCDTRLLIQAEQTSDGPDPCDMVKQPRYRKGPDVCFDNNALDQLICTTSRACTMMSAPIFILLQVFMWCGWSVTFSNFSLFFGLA
T2 sequence (Q9NY47 19-1145 isoform Q9NY47-3 limits assumed): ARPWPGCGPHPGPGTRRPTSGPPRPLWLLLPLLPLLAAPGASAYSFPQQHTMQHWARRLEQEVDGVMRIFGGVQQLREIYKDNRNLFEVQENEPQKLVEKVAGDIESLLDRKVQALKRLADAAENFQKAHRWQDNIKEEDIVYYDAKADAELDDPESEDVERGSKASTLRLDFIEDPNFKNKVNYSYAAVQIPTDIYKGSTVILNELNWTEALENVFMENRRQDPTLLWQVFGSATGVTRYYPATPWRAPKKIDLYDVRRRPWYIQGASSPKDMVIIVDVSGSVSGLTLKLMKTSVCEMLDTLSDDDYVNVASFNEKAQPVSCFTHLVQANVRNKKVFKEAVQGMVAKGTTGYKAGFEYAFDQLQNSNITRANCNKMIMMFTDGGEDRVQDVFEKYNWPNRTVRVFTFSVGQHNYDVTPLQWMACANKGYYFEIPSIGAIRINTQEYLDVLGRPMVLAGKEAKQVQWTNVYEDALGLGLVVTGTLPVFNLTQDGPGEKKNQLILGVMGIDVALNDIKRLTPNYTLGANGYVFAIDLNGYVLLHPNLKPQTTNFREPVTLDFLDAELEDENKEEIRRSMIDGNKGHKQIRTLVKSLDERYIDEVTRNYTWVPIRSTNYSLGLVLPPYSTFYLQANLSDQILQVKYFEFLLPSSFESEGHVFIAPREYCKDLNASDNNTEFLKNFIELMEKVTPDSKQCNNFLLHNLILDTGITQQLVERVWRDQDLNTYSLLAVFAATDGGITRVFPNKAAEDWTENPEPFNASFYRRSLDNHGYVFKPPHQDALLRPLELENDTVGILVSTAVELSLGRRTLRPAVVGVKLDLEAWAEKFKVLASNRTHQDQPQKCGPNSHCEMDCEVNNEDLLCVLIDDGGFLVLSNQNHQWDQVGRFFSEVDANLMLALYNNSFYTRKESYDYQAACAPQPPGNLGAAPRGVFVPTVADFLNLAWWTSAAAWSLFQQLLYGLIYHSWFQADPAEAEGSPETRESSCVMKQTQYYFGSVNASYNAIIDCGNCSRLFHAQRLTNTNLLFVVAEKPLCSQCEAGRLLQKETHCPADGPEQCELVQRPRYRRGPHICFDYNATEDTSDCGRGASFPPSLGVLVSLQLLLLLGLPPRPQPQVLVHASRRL
T2 sequence (Q9NY47 1002-1150 partner limits assumed): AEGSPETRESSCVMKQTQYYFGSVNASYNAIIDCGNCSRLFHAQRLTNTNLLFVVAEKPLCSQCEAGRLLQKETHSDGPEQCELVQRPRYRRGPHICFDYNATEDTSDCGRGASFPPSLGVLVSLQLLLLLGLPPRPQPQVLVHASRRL

## CC(C)C[C@@H](N)C(=O)O [D-leucine]
[1]
  IC50: 199000 nM
[2]
  IC50: 152000 nM

## CC(C)C[C@H](CN)CC(=O)O [Pregabalin, (S+)-3-isobutyl GABA]
[1]
  IC50: 149 nM
[2]
  IC50: 96 nM

## NC1(C(=O)O)CC2CCC1C2 (stereo not shown) [BCH]
[1]
  affinity in competition with [3H]gabapentin binding, in words: weak
[1]; read-out: IC50 Values for Inhibition of [3H]Gabapentin Binding, GKS02 (pα2δ1), membranes from HEK293 cell line GKS02, 20 nM [3H]gabapentin
  IC50: 1030 nM
[2]
  affinity in competition with [3H]gabapentin binding, in words: weak
[2]; read-out: IC50 Values for Inhibition of [3H]Gabapentin Binding, GKS07 (hα2δ2), membranes from HEK293 cell line GKS07, 20 nM [3H]gabapentin
  IC50: 775 nM

## CC(C)C[C@H](N)C(=O)O [L-leucine]
[1]
  IC50: 118 nM
  affinity in competition with [3H]gabapentin binding, in words: markedly more potent than its D-enantiomer
[2]
  IC50: 205 nM
  affinity in competition with [3H]gabapentin binding, in words: markedly more potent than its D-enantiomer

## N[C@@H](Cc1ccccc1)C(=O)O [L-phenylalanine]
[1]
  IC50: 825 nM
[2]
  IC50: 2960 nM
  affinity in competition with [3H]gabapentin binding, in words: weak

## NCC1(CC(=O)O)CCCCC1 [Gabapentin, 1-(aminomethyl)cyclohexane acetic acid]
[2]
  IC50: 282 nM

Source: patent US7067262B2, “Cell line for the expression of an α2δ2 calcium channel subunit and methods of use” (Warner Lambert Company LLC, priority 2000, dated 2006)
